Data on 24 compounds can be found in patent publication US20090264447A1, “Pyrimidine compounds for combating pathogenic fungi and cancer” (BASF SE, priority 2006, published 2009).

Structures are written as SMILES.

The experiment has as its system HeLa B cells. As to the kind of experiment: Cell cycle inhibition in HeLa cells (FACS, G0/G1 to G2/M ratio). To be noted: read-out: IC50 (concentration at which 50% of the cells are inhibited in their cell cycle), 20 h incubation with compound. The class given is cell-based. On the procedure: HeLa B cells were cultivated in DMEM (Life Technologies Cat. No. 21969-035) containing fetal calf serum (FCS, Life Technologies Cat. No. 10270-106) in 180 cm^2 containers at 37° C., 92% humidity and 7% CO2.
5×10^4 cells per well were added into a 24-well plate. After 20 h, the compounds to be tested were added such that the final concentration was 1×10^−6, 3.3×10^−7, 1.1×10^−7, 3.7×10^−8, 1.2×10^−8 and 1×10^−9 M in a final volume of 500 μl. 6 wells contained only DMSO as control. The treated cells were incubated as described above for a further 20 h. The cells were then examined under the microscope for dead cells. The 24-well plate was then centrifuged at 1200 rpm at 20° C., an acceleration in position 7 and the brake position 5 (Eppendorf centrifuge 5804R) for 5 min.
The supernatant was removed and the cells were lysed with 0.5 ml of RNase buffer (10 mM sodium citrate, 0.1% Nonidet NP40, 50 μg/ml RNase, 10 μg/ml propidium iodide) per well. The plates were then incubated at room temperature in the dark for at least 30 min, and the samples were then transferred into FACS tubes. These were measured in an FACS instrument (Beckton Dickinson) with the following settings:
Instrument settings at the FACS Calibur:
The ratio of cells in the G0/G1 phase to those in the G2/M phase was calculated and compared to the value for the control (DMSO).
Take `CON=C(N)c1nc(Cl)c(-c2c(F)cc(OCCCN(C)C)cc2F)c(N2CCC(C)CC2)n1` [Example 2]: the IC50 turned out to be 27 nM. As for `COCCCOc1cc(F)c(-c2c(Cl)nc(C(N)=NOC)nc2NC(C)C(C)(C)C)c(F)c1` (stereo not drawn) [Example 7], the IC50 was 56 nM. As to `CC1CCN(c2nc(-n3cccn3)nc(Cl)c2-c2c(F)cc(OCCCN(C)C(=O)OC(C)(C)C)cc2F)CC1` [Example 11], the IC50 was 570 nM. Consider `CC1CCN(c2nc(-n3cccn3)nc(Cl)c2-c2c(F)cc(OCCCOc3cc(Cl)ncn3)cc2F)CC1` [Example 12], for which the IC50 was found to be 470 nM. As for `COCCCOc1cc(F)c(-c2c(Cl)nc(-n3cccn3)nc2NC(C)C(C)(C)C)c(F)c1` (stereo not drawn) [Example 15], the IC50 stood at 32 nM. The same measure for `COCCCOc1cc(F)c(-c2c(Cl)nc(-n3cccn3)nc2NC(C)C(C)C)c(F)c1` (stereo not drawn) [Example 16]: 26 nM; for `COCCCOc1cc(F)c(-c2c(Cl)nc(-n3ccnn3)nc2NC(C)C(C)C)c(F)c1` (stereo not drawn) [Example 17]: 32 nM. In the case of `COCCCOc1cc(F)c(-c2c(Cl)nc(-n3ccnn3)nc2NC(C)C(C)(C)C)c(F)c1` (stereo not drawn) [Example 18], the IC50 amounted to 29 nM. With `COCCCOc1cc(F)c(-c2c(Cl)nc(-n3nccn3)nc2NC(C)C(C)C)c(F)c1` (stereo not drawn) [Example 19], the IC50 was 26 nM. In the case of `COCCCOc1cc(F)c(-c2c(Cl)nc(-n3nccn3)nc2NC(C)C(C)(C)C)c(F)c1` (stereo not drawn) [Example 20], the IC50 turned out to be 27 nM. Consider `CNCCCOc1cc(F)c(-c2c(Cl)nc(-n3cncn3)nc2N2CCC(C)CC2)c(F)c1` [Example 21], for which the IC50 was determined as 18 nM. Regarding `CC1CCN(c2nc(-n3cncn3)nc(Cl)c2-c2c(F)cc(OCCCN(C)C(=O)OC(C)(C)C)cc2F)CC1` [Example 22], the IC50 worked out at 290 nM. Consider `CC1CCN(c2nc(-n3cncn3)nc(Cl)c2-c2c(F)cc(OCCCOc3cc(Cl)ncn3)cc2F)CC1` [Example 23], for which the IC50 worked out at 330 nM. Take `COCCCOc1cc(F)c(-c2c(Cl)nc(-n3cncn3)nc2NC(C)C(C)(C)C)c(F)c1` (stereo not drawn) [Example 24]: the IC50 stood at 42 nM. Next, `COCCCOc1cc(F)c(-c2c(Cl)nc(-n3cncn3)nc2NC(C)C(C)C)c(F)c1` (stereo not drawn) [Example 25]: 42 nM; `CC1CCN(c2nc(C#N)nc(Cl)c2-c2c(F)cc(OCCCN(C)C)cc2F)CC1` [Example 27]: 220 nM.

Consider `COCCCOc1cc(F)c(-c2c(Cl)nc(C#N)nc2N2CCC(C)CC2)c(F)c1` [Example 31], for which the IC50 was determined as 120 nM. On to `CC1CCN(c2nc(C#N)nc(Cl)c2-c2c(F)cc(OCCCOc3cc(Cl)ncn3)cc2F)CC1` [Example 32], for which the IC50 is 570 nM. As to `CNCCCOc1cc(F)c(-c2c(Cl)nc(C#N)nc2N2CCCCCC2)c(F)c1` [Example 33], the IC50 worked out at 480 nM. Turning to `COCCCOc1cc(F)c(-c2c(Cl)nc(C#N)nc2NC(C)C(C)(C)C)c(F)c1` (stereo not drawn) [Example 35], the IC50 came to 190 nM. For the compound `COCCCOc1cc(F)c(-c2c(Cl)nc(C#N)nc2NC(C)C(C)C)c(F)c1` (stereo not drawn) [Example 36], the IC50 was found to be 59 nM. For the compound `CC(Nc1nc(C#N)nc(Cl)c1-c1c(F)cc(OCCCCl)cc1F)C(C)(C)C` (stereo not drawn) [Example 37], the IC50 came out at 280 nM. Turning to `CC(C)C(C)Nc1nc(C#N)nc(Cl)c1-c1c(F)cc(OCCCCl)cc1F` (stereo not drawn) [Example 38], the IC50 was determined as 330 nM. Next, `CNCCCOc1cc(F)c(-c2c(Cl)nc(C(=O)c3ccc(C)cc3)nc2N2CCCCCC2)c(F)c1` [Example 39]: 580 nM.
